Our source for the IC50 values is patent publication US10377770B2 (Novartis AG, priority 2015, dated 2019).

The target of the test is C-Raf FL (full length CRAF with Y340E and Y341E activating mutations, co-expressed with h14-3-3 zeta) (Homo sapiens (Human), UniProt P04049, Y340E/Y341E). Put plainly: In vitro Raf activity determination, AlphaScreen p-MEK readout, c-Raf (C-Raf FL). Format: biochemical. As to conditions: c-Raf approximately 4 nM, ATP 1 μM, pre-incubation 60 minutes, reaction 1 hour. Put shortly: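 Phosphorylation of kinase-dead biotinylated MEK1 (~10 nM) by C-Raf FL (~4 nM) read by AlphaScreen luminescence with anti-phospho-MEK1/2 after EDTA stop. ATP was 1 μM, with a 1 h reaction at room temperature. Compounds were pre-incubated with enzyme and substrate for 60 min in Tris/MgCl2 buffer, pH 7.5.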
C-Raf FL (full length CRAF with Y340E and Y341E activating mutations, co-expressed with h14-3-3 zeta), sequence (P04049 whole entry Y340E/Y341E): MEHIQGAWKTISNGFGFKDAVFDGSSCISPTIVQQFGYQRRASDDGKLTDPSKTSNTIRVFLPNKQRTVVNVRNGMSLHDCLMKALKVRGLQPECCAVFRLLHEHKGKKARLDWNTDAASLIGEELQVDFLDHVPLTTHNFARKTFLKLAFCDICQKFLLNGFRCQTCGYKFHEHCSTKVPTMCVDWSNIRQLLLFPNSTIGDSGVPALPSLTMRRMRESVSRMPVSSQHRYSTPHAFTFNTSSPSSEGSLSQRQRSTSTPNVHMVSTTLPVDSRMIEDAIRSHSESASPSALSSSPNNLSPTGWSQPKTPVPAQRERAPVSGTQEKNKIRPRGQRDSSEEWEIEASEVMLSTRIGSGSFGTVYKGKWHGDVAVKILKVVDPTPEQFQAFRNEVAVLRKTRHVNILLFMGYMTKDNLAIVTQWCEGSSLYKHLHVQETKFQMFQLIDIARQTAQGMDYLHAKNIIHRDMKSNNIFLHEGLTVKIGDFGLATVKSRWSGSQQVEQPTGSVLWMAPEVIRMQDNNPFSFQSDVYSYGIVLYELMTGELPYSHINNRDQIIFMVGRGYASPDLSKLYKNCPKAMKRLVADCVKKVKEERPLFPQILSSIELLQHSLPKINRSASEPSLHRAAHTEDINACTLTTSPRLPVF
C-Raf FL (full length CRAF with Y340E and Y341E activating mutations, co-expressed with h14-3-3 zeta), sequence (P63104 whole entry partner): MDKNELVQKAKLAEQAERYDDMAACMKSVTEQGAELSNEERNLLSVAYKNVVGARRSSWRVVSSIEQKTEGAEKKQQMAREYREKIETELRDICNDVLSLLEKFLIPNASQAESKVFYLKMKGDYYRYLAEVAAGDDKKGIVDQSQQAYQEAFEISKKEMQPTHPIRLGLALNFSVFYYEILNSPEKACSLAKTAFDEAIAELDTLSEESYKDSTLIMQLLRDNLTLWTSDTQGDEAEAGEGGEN

As for `Cc1ccc(NC(=O)c2cc(C(F)(F)F)ccn2)cc1-c1cnc2c(c1)N1CCOC[C@H]1C[C@@H]2O` (racemic) [Example 147, rac-cis-N-(3-(6-hydroxy-1,2,4,4a,5,6-hexahydro-[1,4]oxazino[4,3-a][1,5]naphthyridin-9-yl)-4-methylphenyl)-4-(trifluoromethyl)picolinamide], half-maximal inhibition (IC50) required 0.0026 nM.
In the case of `Cc1ncc(NC(=O)c2ccnc(C(C)(F)F)c2)cc1-c1cnc2c(c1)N1CCOC[C@H]1C[C@@H]2O` (racemic) [Example 148, rac-cis-2-(1,1-difluoroethyl)-N-(5-(6-hydroxy-1,2,4,4a,5,6-hexahydro-[1,4]oxazino[4,3-a][1,5]naphthyridin-9-yl)-6-methylpyridin-3-yl)isonicotinamide], half-maximal inhibition (IC50) required 0.046 nM.
For `Cc1ccc(NC(=O)c2ccnc(C(C)(C)C#N)c2)cc1-c1cnc2c(c1)N1CCOC[C@H]1C[C@@H]2O` (racemic) [Example 149, rac-cis-2-(2-cyanopropan-2-yl)-N-(3-(6-hydroxy-1,2,4,4a,5,6-hexahydro-[1,4]oxazino[4,3-a][1,5]naphthyridin-9-yl)-4-methylphenyl)isonicotinamide], the midpoint of inhibition, the IC50, lay at 0.013 nM.
With `Cc1ccc(NC(=O)c2ccnc(C(C)(F)F)c2)cc1-c1cnc2c(c1)N1CCOCC1C1(COC1)C2` (racemic) [Example 152, rac-2-(1,1-difluoroethyl)-N-(4-methyl-3-(2,4,4a,6-tetrahydro-1H-spiro[[1,4]oxazino[4,3-a][1,5]naphthyridine-5,3′-oxetan]-9-yl)phenyl)isonicotinamide], the IC50 – broadly, the concentration needed to halve the response being measured – worked out at 0.011 nM.
With `Cc1ncc(NC(=O)c2cccc(C(F)(F)F)c2)cc1-c1cnc2c(c1)N1CCOCC1C1(COC1)C2` (racemic) [Example 156, rac-N-(6-methyl-5-(2,4,4a,6-tetrahydro-1H-spiro[[1,4]oxazino[4,3-a][1,5]naphthyridine-5,3′-oxetan]-9-yl)pyridin-3-yl)-3-(trifluoromethyl)benzamide], the half-maximal inhibitory concentration (IC50) was found to be 0.048 nM.
`Cc1ccc(NC(=O)c2ccnc(C(C)(C)C#N)c2)cc1-c1cnc2c(c1)N1CCOCC1C1(COC1)C2` (racemic) [Example 157, rac-2-(2-cyanopropan-2-yl)-N-(4-methyl-3-(2,4,4a,6-tetrahydro-1H-spiro[[1,4]oxazino[4,3-a][1,5]naphthyridine-5,3′-oxetan]-9-yl)phenyl)isonicotinamide] came in with an IC50 of 0.16 nM.
The value for `Cc1ccc(NC(=O)c2ccnc(C(C)(F)F)c2)cc1-c1cnc2c(c1)N1CCOCC1C(CO)(CO)C2` (racemic) [Example 158, rac-N-(3-(5,5-bis(hydroxymethyl)-yl)-1,2,4,4a,5,6-hexahydro-[1,4]oxazino[4,3-a][1,5]naphthyridin-9-yl)-4-methylphenyl)-2-(1,1-difluoroethyl)isonicotinamide] was 0.01 nM; that for `Cc1ccc(NC(=O)c2cc(C(F)(F)F)ccn2)cc1-c1cnc2c(c1)N1CCOCC1C(CO)(CO)C2` (racemic) [Example 159, rac-N-(3-(5,5-bis(hydroxymethyl)-1,2,4,4a,5,6-hexahydro-[1,4]oxazino[4,3-a][1,5]naphthyridin-9-yl)-4-methylphenyl)-4-(trifluoromethyl)picolinamide] was 0.0068 nM; that for `Cc1ccc(NC(=O)c2ccnc(C(C)(F)F)c2)cc1-c1cnc2c(c1)N1CCOC[C@H]1C(C)(C)[C@@H]2O` (racemic) [Example 160, rac-cis-2-(1,1-difluoroethyl)-N-(3-(6-hydroxy-5,5-dimethyl-1,2,4,4a,5,6-hexahydro-[1,4]oxazino[4,3-a][1,5]naphthyridin-9-yl)-4-methylphenyl)isonicotinamide] was 0.027 nM.
In turn, `Cc1ccc(NC(=O)c2ccnc(C(C)(F)F)c2)cc1-c1cnc2c(c1)N1CCOC[C@H]1C(F)(F)[C@@H]2O` (racemic) [Example 163, rac-cis-N-(3-(5,5-difluoro-6-hydroxy-1,2,4,4a,5,6-hexahydro-[1,4]oxazino[4,3-a][1,5]naphthyridin-9-yl)-4-methylphenyl)-2-(1,1-difluoroethyl)isonicotinamide] yielded an IC50 of 0.02 nM.
The compound `Cc1ccc(NC(=O)c2ccnc(C(F)(F)F)c2)cc1-c1cnc2c(c1)N1CCOCC1C(F)(F)C2O` (racemic) [Example 166, rac-cis-N-(3-(5,5-difluoro-6-hydroxy-1′2′4′4a′5′6-hexahydro-[1,4]oxazino[4,3-a][1,5]naphthyridin-9-yl)-4-methylphenyl)-2-(trifluoromethyl)isonicotinamide] displayed an IC50 of 0.011 nM.
Under `Cc1ccc(NC(=O)c2ccnc(C(C)(F)F)c2)cc1-c1cnc2c(c1)N1CCOC[C@H]1C[C@@]2(O)C(F)(F)F` (racemic) [Example 169, rac-cis-2-(1,1-difluoroethyl)-N-(3-(6-hydroxy-6-(trifluoromethyl)-1,2,4,4a,5,6-hexahydro-[1,4]oxazino[4,3-a][1,5]naphthyridin-9-yl)-4-methylphenyl)isonicotinamide] stands 0.032 nM; under `Cc1ccc(NC(=O)c2ccnc(C(F)(F)F)c2)cc1-c1cnc2c(c1)N1CCOC[C@H]1C[C@@]2(O)C(F)(F)F` (racemic) [Example 170, rac-cis-N-(3-(6-hydroxy-6-(trifluoromethyl)-1,2,4,4a,5,6-hexahydro-[1,4]oxazino[4,3-a][1,5]naphthyridin-9-yl)-4-methylphenyl)-2-(trifluoromethyl)isonicotinamide], 0.025 nM.
The compound `Cc1ccc(NC(=O)c2ccnc(C(F)(F)F)c2)cc1-c1cnc2c(c1)N1CCOCC1CC2N` (racemic) [Example 171, rac-N-(3-(6-amino-1,2,4,4a,5,6-hexahydro-[1,4]oxazino[4,3-a][1,5]naphthyridin-9-yl)-4-methylphenyl)-2-(trifluoromethyl)isonicotinamide] yielded a concentration for half-maximal inhibition (IC50) of 0.019 nM.
`CCC(=O)NC1CC2COCCN2c2cc(-c3cc(NC(=O)c4ccnc(C(F)(F)F)c4)ccc3C)cnc21` (racemic) [Example 172, rac-N-(4-methyl-3-(6-propionamido-1,2,4,4a,5,6-hexahydro-[1,4]oxazino[4,3-a][1,5]naphthyridin-9-yl)phenyl)-2-(trifluoromethyl)isonicotinamide]: the IC50 was found to be 0.034 nM.
Turning to `CNC(=O)C1Cc2ncc(-c3cc(NC(=O)c4ccnc(C(C)(F)F)c4)ccc3C)cc2N2CCOCC12` (racemic) [Example 173, rac-9-(5-(2-(1,1-difluoroethyl)isonicotinamido)-2-methylphenyl)-N-methyl-1,2,4,4a,5,6-hexahydro-[1,4]oxazino[4,3-a][1,5]naphthyridine-5-carboxamide], the IC50 turned out to be 0.012 nM.
In turn, `CCN1C(=O)Cc2nncn2-c2cc(-c3cc(NC(=O)c4ccnc(C(C)(F)F)c4)ccc3C)cnc21` (racemic) [Example 234, 2-(1,1-difluoroethyl)-N-(3-(6-ethyl-5-oxo-5,6-dihydro-4H-pyrido[2,3-b][1,2,4]triazolo[4,3-d][1,4]diazepin-9-yl)-4-methylphenyl)isonicotinamide] returned an IC50 of 1.3 nM.
Turning to `CCN1C(=O)[C@H]2[C@@H]3COC[C@@H]3[C@H]2c2cc(-c3cc(NC(=O)c4ccnc(C(F)(F)F)c4)ccc3C)cnc21` (racemic) [Example 362], the IC50 came out at 0.2 nM.
